Laboratory results reported in paper PMC6928636, “Broad-Spectrum Amino Acid Transporters ClAAP3 and ClAAP6 Expressed in Watermelon Fruits” (International Journal of Molecular Sciences, 2019).
Read-outs that look alike come from different tables or passages of the source.

How the values were obtained:
Conditions in all cases: labelled compound; empty-vector values used to normalize
ClAAP6 [1] = system: T1, ClAAP6; assay: [3H]Arg uptake into yeast […]Δ[…]α cells; type: cell-based, Citrullus lanatus
T1 construct: untagged; expressed in S. cerevisiae 22Δ10α lacking endogenous amino acid transporters

ClAAP3 [2] = system: T2, ClAAP3; assay: [3H]Arg uptake into yeast […]Δ[…]α cells; type: cell-based, Citrullus lanatus
T2 construct: untagged; expressed in S. cerevisiae 22Δ10α lacking endogenous amino acid transporters

ClAAP3 [3] = system: ClAAP3
ClAAP6 [4] = system: ClAAP6

Km (ClAAP3 [3]) | Km (ClAAP6 [4]) | SMILES | Km (ClAAP6 [1]) | Km (ClAAP3 [2])
 |  | N=C(N)NCCC[C@H](N)C(=O)O [Arg] | 579 ± 24.1 µM | 54.1 ± 7.5 µM
398 ± 48.6 µM | 74 ± 9.8 µM | O=C(O)[C@@H]1CCCN1 [Pro] |  | 
